Laboratory results: patent US11384071B2, “Inhibitors of mechanotransduction to treat pain and modulate touch perception” (Max-Delbrück-Centrum für Molekulare Medizin in der …, priority 2016, dated 2022)

What was measured:
[1] = molecular target: T1, STOML3-FLAG (Mus musculus, UniProt Q6PE84); experiment: dSTORM imaging of STOML3-FLAG cluster size at the plasma membrane of N2A cells; assay type: cell-based; conditions: pre-incubation three hours, 20 μM, vs vehicle
T1 construct: expressed in transfected cells; host or cells: N2A (Neuro2A)
T1 sequence (Q6PE84 whole entry): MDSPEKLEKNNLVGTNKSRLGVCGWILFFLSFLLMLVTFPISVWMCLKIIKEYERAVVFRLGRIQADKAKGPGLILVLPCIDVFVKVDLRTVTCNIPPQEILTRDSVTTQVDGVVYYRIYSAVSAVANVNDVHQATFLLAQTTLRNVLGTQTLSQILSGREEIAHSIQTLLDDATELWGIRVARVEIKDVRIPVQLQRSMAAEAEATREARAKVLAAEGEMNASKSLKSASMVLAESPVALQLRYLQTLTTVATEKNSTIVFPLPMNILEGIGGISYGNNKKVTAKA
Procedure: N2A cells were cultured on EHS-Laminin coated precision coverglass, thickness 0.17, then transfected with a plasmid encoding STOML3-FLAG. After overnight incubation, cells were treated for 3 hours with 20 μM compound, or DMSO as a control. Cells were then fixed (15 min, 4% PFA), permeabilized (0.05% TritonX 100, 5 min) and blocked (phosphate buffered saline (PBS) containing 10% fetal goat serum (FGS), 37° C., 1 hr). Cell were labeled with mouse anti-FLAG antibody (M2 clone, 1:100 in PBS containing 10% FGS). The secondary antibody was an Alexa647-conjugated, goat anti-mouse antibody (1:100 in PBS plus 10% FGS, 1 h, 37° C.). After staining, the samples were fixed again. […]
For analysis of STOML3 domain size, all reconstructed images were blinded and then from each imaged cell 100 individual dots were cropped (size: 20×20 pixels). A 2D-Gaussian fit was calculated using the Igor software (WaveMetrics, USA). […] After domain sizes had been determined for each cell, images were unblinded and then normalized against the average domain size for control cells prepared and imaged on the same day.
We next determined whether OB-1 and OB-2 modulation of STOML3 oligomerization state influences clustering of the protein in the plasma membrane. […]

[2] = tested on: Piezo1 currents in N2A cells; experiment: Pillar array patch-clamp analysis of mechanotransduction in N2A cells; assay type: cell-based
Procedure: Whole-cell, patch-clamp recordings were conducted as previously described 5-7, using patch pipettes with a tip resistance of 3-6 MΩ, filled with a solution of: 110 mM KCl, 10 mM NaCl, 1 mM MgCl2, 1 mM EGTA and 10 mM HEPES, adjusted to pH 7.3 with KOH. (For experiments on DRG neurons 10 mM QX-314 was added to the pipette to block voltage-gated sodium channels 8 Extracellular solutions contained 140 mM NaCl, 4 mM KCl, 2 mM CaCl2, 1 mM MgCl2, 4 mM glucose, 10 mM HEPES, adjusted to pH 7.4 with NaOH. A Zeiss 200 inverted microscope and an EPC-10 amplifier in combination with Patchmaster software was used, data was analyzed using Fitmaster software (HEKA Electronik GmbH, Germany). Pipette and membrane capacitance were compensated using the auto function of Patchmaster, series resistance was compensated by at least 60% to minimize voltage errors. Mechanical stimuli were applied using a polished glass probe driven by the MM3A micromanipulator (Kleindiek Nanotechnik, Germany). Mechanical stimuli were applied by either; indenting the cell soma or by culturing cells on elastomeric pillar arrays and applying the stimulus to the cell-substrate interface by deflecting an individual pilus.
Briefly, elastomeric pillar arrays of defined dimensions were cast in PDMS with an elasticity of 2 MPa. Cells cultured on these arrays were monitored using whole-cell patch-clamp whilst a glass probe was used to apply repeated deflections (of differing magnitudes) to an individual pilus directly beneath the cell. Images were obtained of the pilus before and after deflection and images were analyzed off-line to determine the exact deflection for each data point. Images were obtained using a 40×LD objective and a CoolSNAP EZ CCD camera. Images were analyzed off-line using Igor software (WaveMetrics, USA). The collection of stimulus-response data using pillar arrays generates data sets with variation in both x and y. In order to effectively compare groups for each cell studied we binned response data by stimulus size in the following bins: 0-10, 10-50, 50-100, 100-250, 250-500, 500-1000. For each cell, current amplitudes within each bin were averaged and then bins averaged between cells—we then tested for significance by testing whether the current amplitude for a given stimulation range (i.e. bin) differed between samples. A power analysis was used to determine that moderate to strong effects between samples could be detected with a sample size >4. Data sets were in excess of this number. To distinguish mechanoreceptors from nociceptors in the mixed population of acutely prepared DRG neurons, the shape of the generated action potential (AP) was used. […] For quantitative analysis of mechanosensitivity we measured responses in the most sensitive sub-population of mechanoreceptors, previously defined as Typell mechanoreceptors (Poole et al., 2014). This population was identified as those cells with APs lacking a hump in the falling phase and a full width at half maximum (FWHM) of at least 0.7 ms, (average, ±s.e.m.: 0.9±0.04 ms)
Endogenously expressed STOML3 in N2A cells is required to maintain Piezo channel sensitivity to membrane deflection^2. By precisely deflecting defined areas of the membrane-substrate interface using a pillar array we could activate Piezo1 currents in N2A cells with displacements ranging from 100-1000 nm (FIG. 2a). Both OB-1 and OB-2 reduced the sensitivity of mechanosensitive currents to pillar deflection (FIG. 2b). […]

STOML3-FLAG cluster size [1] | IC50 ([2]; calculated from concentration dependence, read-out: IC50 on mechanically-activated (Piezo1) currents) [nM] | SMILES | sensitivity of mechanosensitive currents to pillar deflection [2] | pre-incubation time for maximal reduction of Piezo1 current amplitudes ([2]; 20 μM OB-1) [h] | Hill coefficient ([2]; Piezo1 current)
significantly reduced | 10 | CCOC(=O)c1c(-c2ccccc2)oc2ccc(Oc3c([N+](=O)[O-])ncn3C)cc12 [OB-1, Ethyl 5-((1-methyl-4-nitro-1H-imidazol-5-yl)oxy)-2-phenylbenzofuran-3-carboxylate] | reduced | 3 | 0.6
significantly reduced | – | Cc1ccnc(NC(=O)CSc2nnc3c4ccccc4n(Cc4ccccc4)c3n2)c1 [OB-2] | reduced | – | –
